Legend:
[1] = target: T1, A701M mutant full-length ORF2p (FMDD) (Homo sapiens, UniProt O00370, A701M); assay: Gel-based RT assay of full-length ORF2p A701M mutant (FMDD); assay type: biochemical
T1 construct: His8 (C); HERV-K protease + TEV protease + TEV site (self-processed; leaves one Gly) (N, cleaved yes); made in house; host or cells: SF9 insect cells (MultiBac)
Description: (§1) Crystal structure of AZT triphosphate bound to HIV-1 RT (PDB 5I42) versus model of AZT triphosphate bound to L1 ORF2p. […] Left, HIV-1 RT in the NNRTI-unbound conformation (PDB 7LRI). Residues involved in NNRTI-resistance are highlighted; space occupied by HIV-1-bound nevirapine is shadowed (PDB 4PUO). Right, equivalent region in L1 ORF2p. The long α-helix corresponds to residues 572–588 in ORF2p. […] Data in a, b and e are representative of two independent experiments and shown as mean ± s.d. […]
(§2) server155 and manually checked with cutoff of 2.5-3.3 Å for polar interactions and 3.7 Å for van der Waals […]
(§3) ORF2p reverse transcriptase activity assays
(§4) Microwell assays were performed using the reverse transcriptase assay, colorimetric (Roche) according to the manufacturer’s instructions, with the supplied poly(A) template and oligo(dT) 15 primer. ORF2p fractions were diluted for assay in lysis/binding buffer (50 mM Tris, 80 mM potassium chloride, 2.5 mM DTT, 0.75 mM EDTA, and 0.5% Triton X- 100; pH 7.8) and incorporation of digoxigenin- and biotin- labeled dUTP into DNA was measured by absorbance at 405 nm as compared to a 490 nm reference. […] 3 μL reaction samples were subjected to denaturing 8 M urea 20% PAGE to resolve products followed by signal quantification (ImageQuant 5.2, GE Healthcare Bio- Sciences) through phosphorimaging (Amersham Typhoon 5, Cytivia). […]

ORF2p core [2] = target: T2, ORF2p core (Homo sapiens, UniProt O00370); assay: Homogeneous time-resolved fluorescence (HTRF) ORF2p RT assay; assay type: biochemical; settings: HTRF; NRTI NTPs
T2 construct: His6-MBP-3C-ORF2p (238-1061, ORFeus-Hs) in pET41; His6-MBP (3C protease site) (N, cleaved yes); made in house; host or cells: E. coli
Protocol: (§5) ORF2p core was preincubated with a template:primer containing a single site for the incorporation of a given nucleotide analogue. The primer/template sequence shown in the panel a illustrates the case of single incorporation of 3TC, with a single G for incorporation; the incoming template sequence for entecavir and carbovir has a single C, and for d4T a single A, each at position labeled “N”. Reactions were incubated for one minute at 37 °C with a 100 nM dNTP mixture and increasing concentrations of listed inhibitors. IC50 index, fold = IC50 (drug, µM) ÷ [dNTP] […] Fluorescein-labeled dNTPs (here, uracil-TP) are incorporated by ORF2p into a biotinylated primer, here shown against a poly(A) template. Detection is then achieved using FRET with a terbium cryptate labeled streptavidin, and the time-resolved technique and time-delayed emission from terbium cryptate reduces background from other fluorescent chemicals in the mix. In the presence of ORF2p RT inhibitors (RTIs), base incorporation is stopped and FRET signal is lost. […]
(§6) ORF2p reverse transcriptase activity assays […]
For HTRF RT assays157, 25 nM ORF2p core and 12. 5 nM t em plat e: primer was incubated at 25°C for 60 minutes
with 10 nM of fluorescein- 12- dUTP (Thermo), 1 µM each (dATP,dCTP,dGTP), and test compound in a 15 µL
reaction with buffer containing 50 mM Tris-HCl, 50 mM KCl, 10 mM MgCl2, 10 mM DTT, pH 8.1, and 1% final

ORF2p core [3] = target: T2, ORF2p core; assay: Gel-based L1 RT assay, ORF2p core, inhibition by NRTI triphosphates; assay type: biochemical; settings: 100 nM dNTP mixture
Protocol: as §5, §6
Gel-based RT activity assays consisted of pr e-incubating RTs with annealed DNA/RNA, DNA/DNA, or RNA/RNA 5’- end- radiolabeled or 5’-end-Cy5- o r FAM-labeled template:primer duplex or hybrid duplex and, where indicated, inhibitor in the presence of 0.1- 1 μ M dNTP or NTP mixture, 0.25 mM EDTA, 50 mM NaCl, and 25 mM Tris (pH 8) for 10 min at 37°C. Labeled nucleic acids were purchased from Dharmacon or IDT. Unless otherwise indicated, 15 μL reactions were initiated by the addition of 1.3 mM MgCl2, incubated for 10 min at 37 °C, and then stopped by the addition of 15 μL of formamide/EDTA (25 mM) mixture and incubated at 95 °C for 10 min. 3 μL reaction samples were subjected to denaturing 8 M urea 20% PAGE to resolve products followed by signal quantification (ImageQuant 5.2, GE Healthcare Bio- Sciences) through phosphorimaging (Amersham Typhoon 5, Cytivia). Scanned gel images are […]
minor products; original images are provided in an Extended Data file. […]

[4] = target: T3, Full-length ORF2p WT (FADD) (Homo sapiens, UniProt O00370); assay: Gel-based RT assay of full-length ORF2p WT (FADD); assay type: biochemical; settings: single-nucleotide-resolution RT assays
T3 construct: gel-based RT assay of full-length ORF2p WT (FADD) or HIV-like (FMDD); His8 (C); HERV-K protease + TEV protease + TEV site (self-processed; leaves one Gly) (N, cleaved yes); made in house; host or cells: SF9 insect cells (MultiBac)
Description: as §1, §2, §3, §4

[5] = test system: L1 retrotransposition reporter in HeLa cells; assay: LINE-1 dual luciferase retrotransposition assay in HeLa cells; assay type: cell-based, human; settings: HeLa cells, stable dual luciferase L1 reporter, normalized to cell viability, n = 3 wells

Nc1ccn([C@@H]2CS[C@H](CO)O2)c(=O)n1 [3TC, lamivudine]
fold more potent in inhibiting A701M mutant full-length ORF2p (FMDD) than wild type (FADD) [1]: approximately 15 fold | IC50 (ORF2p core [2]): 200 to 750 nM | IC50 index, fold = IC50 (drug, µM) ÷ [dNTP] (natural counterpart, 0.1 µM) (ORF2p core [3]): 56 fold | IC50 (ORF2p core [3]; NTP forms of NRTIs, one minute at 37 °C): 5 to 7 µM | inhibition of full-length ORF2p compared with ORF2p core [4]: similarly inhibited | IC50 [5]: 900 nM | IC50 ([5]; Homo sapiens, HeLa): 1000 to 5000 nM
